Measurements as given in patent US8889591B2, “Herbicidal compositions comprising 4-amino-3-chloro-5-fluoro-6-(4-chloro-2-fluoro-3-methoxyphenyl)pyridine-2-carboxylic acid or a derivative thereof and bromobutide, daimuron, oxaziclomefone or pyributicarb” (Dow Agrosciences LLC, priority 2012, dated 2014).

Key:
FIMMI = experiment: In-water applied greenhouse weed control, transplanted paddy rice system; assay type: in vivo, Fimbristylis miliacea (L.) Vahl; settings: in-water application
Protocol: (§1) Weed seeds or nutlets of the desired test plant species were planted in puddled soil (mud) prepared by mixing a shredded, non-sterilized mineral soil (50.5 percent silt, 25.5 percent clay, and 24 percent sand, with a pH of about 7.6 and an organic matter content of about 2.9 percent) and water at a 1:1 volumetric ratio. The prepared mud was dispensed in 365 mL aliquots into 16-ounce (oz.) non-perforated plastic pots with a surface area of 86.59 square centimeters (cm^2) leaving a headspace of 3 centimeters (cm) in each pot. Mud was allowed to dry overnight prior to planting or transplanting. Rice seeds were planted in Sun Gro MetroMix® 306 planting mixture, which typically has a pH of 6.0 to 6.8 and an organic matter content of about 30 percent, in plastic plug trays. Seedlings at the second or third leaf stage of growth were transplanted into 840 mL of mud contained in 32-oz. non-perforated plastic pots with a surface area of 86.59 cm^2 4 days prior to herbicide application. The paddy was created by filling the headspace of the pots with 2.5 to 3 cm of water. When required to ensure good germination and healthy plants, a fungicide treatment and/or other chemical or physical treatment was applied. The plants were grown for 4-22 days in a greenhouse with an approximate 14 h photoperiod which was maintained at about 29° C. during the day and 26° C. during the night. Nutrients were added as Osmocote® (19:6:12, N:P:K+ minor nutrients) at 2 g per 16-oz. pot and 4 g per 32-oz. pot. Water was added on a regular basis to maintain the paddy flood, and supplemental lighting was provided with overhead metal halide 1000-Watt lamps as necessary. The plants were employed for testing when they reached the first through fourth true leaf stage.
(§2) Treatments consisted of the acid or esters of 4-amino-3-chloro-5-fluoro-6-(4-chloro-2-fluoro-3-methoxy-phenyl)pyridine-2-carboxylic acid (compound A) each formulated as an SC and various herbicidal components alone and in combination. Forms of compound A were applied on an acid equivalent basis.
(§3) Other herbicidal components were applied on an active ingredient basis and included daimuron formulated as an EC, bromobutide (technical grade material), and oxaziclomefone (technical grade material).
(§4) Treatment requirements for each compound or herbicidal component were calculated based upon the rates being tested, the concentration of active ingredient or acid equivalent in the formulation, an application volume of 2 mL per component per pot, and an application area of 86.59 cm^2 per pot.
(§5) For formulated compounds, a measured amount was placed in an individual 100 or 200 mL glass vial and was dissolved in a volume of 1.25% (v/v) Agri-Dex® crop oil concentrate to obtain application solutions.
(§6) For technical grade compounds, a weighed amount was placed in an individual 100 to 200 mL glass vial and was dissolved in a volume of acetone to obtain concentrated stock solutions. […] The concentrated stock solutions obtained were diluted with an equivalent volume of an aqueous mixture containing 2.5% (v/v) crop oil concentrate so that the final application solutions contained 1.25% (v/v) crop oil concentrate.
(§7) Applications were made by injecting, with a pipetter, appropriate amounts of the application solutions, individually and sequentially, into the aqueous layer of the paddy. Control plants were treated in the same manner with the solvent blank. Applications were made so that all treated plant material received the same concentrations of acetone and crop oil concentrate.
(§8) The treated plants and control plants were placed in a greenhouse as described above and water was added as needed to maintain a paddy flood. After approximately 3 weeks the condition of the test plants as compared with that of the untreated plants was determined visually and scored on a scale of 0 to 100 percent where 0 corresponds to no injury or growth inhibition and 100 corresponds to complete kill. […]

CYPRO = experiment: as above; assay type: in vivo, Cyperus rotundus L.; settings: in-water application
Protocol: as §1, §2, §3, §4, §5, §6, §7, §8

BRAPP = experiment: Postemergence foliar-applied greenhouse weed control, direct-seeded rice system; assay type: in vivo; settings: Compound A Acid 4.38 gae/ha alone
Description: (§9) Seeds or nutlets of the desired test plant species were planted in a soil matrix prepared by mixing a loam or sandy loam soil (e.g., 28.6 percent silt, 18.8 percent clay, and 52.6 percent sand, with a pH of about 5.8 and an organic matter content of about 1.8 percent) and calcareous grit in an 80 to 20 ratio. The soil matrix was contained in plastic pots with a volume of 1 quart and a surface area of 83.6 square centimeters (cm^2). When required to ensure good germination and healthy plants, a fungicide treatment and/or other chemical or physical treatment was applied. The plants were grown for 8-22 days in a greenhouse with an approximate 14 h photoperiod which was maintained at about 29° C. during the day and 26° C. during the night. Nutrients (Peters Excel® 15-5-15 5-Ca 2-Mg and iron chelate) were applied in the irrigation solution as needed and water was added on a regular basis. Supplemental lighting was provided with overhead metal halide 1000-Watt lamps as necessary. The plants were employed for testing when they reached the first through fourth true leaf stage.
as §2, with “(Compound A),” for “(compound A)”, “SC (suspension concentrate),” for “SC”
(§10) Other herbicidal components were applied on an active ingredient basis and included diamuron formulated as an EC (emulsifiable concentrate) and oxaziclomefone (technical grade material).
(§11) Treatment requirements were calculated based upon the rates being tested, the concentration of active ingredient or acid equivalent in the formulation, and a 12 mL application volume at a rate of 187 L/ha.
(§12) For treatments comprised of formulated compounds, measured amounts of compounds were placed individually in 25 mL glass vials and diluted in a volume of 1.25% (v/v) Agri-Dex® crop oil concentrated to obtain 12× stock solutions. […] Application solutions were prepared by adding an appropriate amount of each stock solution (e.g., 1 mL) and diluted to the appropriate final concentrations with the addition of 10 mL of an aqueous mixture of 1.25% (v/v) crop oil concentrate so that the final spray solutions contained 1.25+/−0.05% (v/v) crop oil concentrate.
(§13) For treatments comprised of technical compounds, weighed amounts can be placed individually in 25 mL glass vials and dissolved in a volume of 97:3 v/v acetone/DMSO to obtain 12× stock solutions. […] Application solutions can be prepared by adding an appropriate amount of each stock solution (e.g., 1 mL) and diluted to the appropriate final concentrations with the addition of 10 mL of an aqueous mixture of 1.5% (v/v) crop oil concentrate so that the final spray solutions contain 1.25% (v/v) crop oil concentrate. When technical materials are used, the concentrated stock solutions can be added to the spray solutions so that the final acetone and DMSO concentrations of the application solutions are 16.2% and 0.5%, respectively.
(§14) For treatments comprised of formulated and technical compounds, weighed amounts of the technical materials were placed individually in 25 mL glass vials and dissolved in a volume of 97:3 v/v acetone/DMSO to obtain 12× stock solutions, and measured amounts of the formulated compounds were placed individually in 25 mL glass vials and diluted in a volume of 1.5% (v/v) crop oil concentrate or water to obtain 12× stock solutions. […] Application solutions were prepared by adding an appropriate amount of each stock solution (e.g., 1 mL) and diluted to the appropriate final concentrations with the addition of an appropriate amount of an aqueous mixture of 1.5% (v/v) crop oil concentrate so that the final spray solutions contained 1.25% (v/v) crop oil concentrate. […]

ECHCG = experiment: as above; assay type: in vivo, Echinochloa crusgalli (L.) Beauv.
Description: as §9
as §2, with “(Compound A),” for “(compound A)”, “SC (suspension concentrate),” for “SC”
as §10, §11, §12, §13, §14

ECHCO = experiment: as above; assay type: in vivo, Echinochloa colona (L.) Link
Description: as §9
as §2, with “(Compound A),” for “(compound A)”, “SC (suspension concentrate),” for “SC”
as §10, §11, §12, §13, §14

LEFCH = experiment: as above; assay type: in vivo, Leptochloa chinensis (L.) Nees
Description: as §9
as §2, with “(Compound A),” for “(compound A)”, “SC (suspension concentrate),” for “SC”
as §10, §11, §12, §13, §14

IPOHE = experiment: as above; assay type: in vivo, Ipomoea hederacea Jacq.
Description: as §9
as §2, with “(Compound A),” for “(compound A)”, “SC (suspension concentrate),” for “SC”
as §10, §11, §12, §13, §14

ECHOR = experiment: In-water applied greenhouse weed control, transplanted paddy rice system; assay type: in vivo, Echinochloa oryzoides (Ard.) Fritsch; settings: in-water application
Protocol: as §1, §2, §3, §4, §5, §6, §7, §8

[1] = Compound A Acid 4.38 gae/ha alone
[2] = Compound A Acid 8.75 gae/ha alone
[3] = Compound A Acid 17.5 gae/ha alone
[4] = Compound A Acid 35 gae/ha alone

Row | SMILES | Visual Weed Control (%) - 19 DAA FIMMI Obs (FIMMI; Bromobutide 225 gai/ha alone) [%] | Visual Weed Control (%) - 19 DAA FIMMI Obs (FIMMI; Bromobutide 450 gai/ha alone) [%] | Visual Weed Control (%) - 19 DAA CYPRO Obs (CYPRO; Bromobutide 225 gai/ha alone) [%] | Visual Weed Control (%) - 19 DAA CYPRO Obs (CYPRO; Bromobutide 450 gai/ha alone) [%] | Visual Weed Control (%) - 20 DAA BRAPP Obs (BRAPP) [%] | Visual Weed Control (%) - 20 DAA ECHCG Obs (ECHCG; [1]) [%] | Visual Weed Control (%) - 20 DAA ECHCG Obs (ECHCG; [2]) [%] | Visual Weed Control (%) - 20 DAA ECHCO Obs (ECHCO; [1]) [%] | Visual Weed Control (%) - 20 DAA ECHCO Obs (ECHCO; [2]) [%] | Visual Weed Control (%) - 20 DAA ECHCO Obs (ECHCO; [3]) [%] | Visual Weed Control (%) - 20 DAA LEFCH Obs (LEFCH; [1]) [%] | Visual Weed Control (%) - 20 DAA LEFCH Obs (LEFCH; [2]) [%] | Visual Weed Control (%) - 20 DAA LEFCH Obs (LEFCH; [3]) [%] | Visual Weed Control (%) - 20 DAA IPOHE Obs (IPOHE; [1]) [%] | Visual Weed Control (%) - 20 DAA IPOHE Obs (IPOHE; [2]) [%] | Visual Weed Control (%) - 20 DAA ECHOR Obs (ECHOR; [2]) [%] | Visual Weed Control (%) - 20 DAA ECHOR Obs (ECHOR; [3]) [%] | Visual Weed Control (%) - 20 DAA ECHOR Obs (ECHOR; [4]) [%] | Visual Weed Control (%) - 21 DAA CYPRO Obs (CYPRO; [3]) [%] | Visual Weed Control (%) - 21 DAA CYPRO Obs (CYPRO; [4]) [%]
1 | CC(C)(NC(=O)C(Br)C(C)(C)C)c1ccccc1 (centres unmarked) [Bromobutide, 2-bromo-3,3-dimethyl-N-(1-methyl-1-phenylethyl)butanamide] | 0 | 15 | 0 | 0 | – | – | – | – | – | – | – | – | – | – | – | – | – | – | – | –
2 | COc1c(Cl)ccc(-c2nc(C(=O)O)c(Cl)c(N)c2F)c1F [Compound A Acid, 4-amino-3-chloro-6-(4-chloro-2-fluoro-3-methoxyphenyl)-5-fluoropyridine-2-carboxylic acid] | – | – | – | – | 10 | 25 | 80 | 50 | 75 | 90 | 0 | 20 | 50 | 10 | 35 | 20 | 30 | 40 | 40 | 70
